This experiment addresses T1, recombinant full-length WRN protein (1-1432) (Homo sapiens, UniProt Q14191).
T1 construct: recombinant full-length WRN protein (1-1432)
As to the kind of experiment: WRN unwinding activity, fluorogenic 384-well assay (Example A). In kind it is biochemical. As to conditions: WRN unwinding activity, 4 hr; Table 2; read-out: 4 hr UNW pIC50 (converted). Here is the method:
Functional WRN unwinding activity can be measured using a fluorogenic plate based 384 well assay configured to measure the separation of labeled double stranded DNA substrate. Compounds were dosed out in neat DMSO with a 1:3 serial dilution scheme. 100 nL of compound was stamped into Greiner low volume black assay plates (Greiner Cat #784076) using the Echo Acoustic Dispenser to generate assay ready plates. All solutions were prepared in assay buffer (25 mM TRIS (pH8.0), 5 mM NaCl, 2 mM MgCl2, 1 mM DTT, 0.05% BSA) for this 10 μL low volume reaction. To prepare the solutions, a 2×WRN Enzyme cocktail was made containing 200 pM of recombinant full-length WRN protein (1-1432). A 2× Substrate cocktail was made to consist of both 200 μM ATP (any ultrapure ATP sample) and 12 nM of the fluorescent quenched labeled double stranded DNA oligomer (IDT Custom synthesis; 5′-5IABkFQ (SEQ ID NO. 1)/GCACTGGCCGTCGTTTTACGGTCGTGACT-3′ (SEQ ID NO. 2): 5′-TTTTTTACTTAACGACGGCCAGTGC (SEQ ID NO. 3)/36-TAMTSP/-3′ (SEQ ID NO. 4)). To start the reaction, 5 μL of assay buffer was added to a single column to serve as the low control. Following this, 5 μL of 2×WRN Enzyme was added in all wells except the buffer low control wells. The reaction plate was covered and incubated at ambient temperature for 4 hours to allow for time dependent inhibition if it existed. After 4 hours, the addition of 5 μL of 2×-ATP/DNA substrate cocktail was added across all wells of the assay plate. This initiated the reaction, as the plate was incubated at ambient temperature for 60 minutes for the unwinding reaction to occur. A 10 mM EDTA solution was prepared and added at 5 μL across the entire plate after 60 minutes to quench the samples for an endpoint measurement. Fluorescent intensity was measured using excitation and emission wavelengths of 525 nm and 598 nm, respectively. High florescent intensity (DMSO with buffer) represents full inhibition of unwinding activity and low florescent intensity (DMSO with enzyme) represents no inhibition of unwinding activity. The potency of the compounds was determined using a four-parameter inhibition model to generate pIC50, Hill Slope, maximum inhibition (see Table 2).

The source of these data is patent US12662451B2, “Chemical compounds and uses thereof” (GLAXOSMITHKLINE INTELLECTUAL PROPERTY (NO.4) LIMITED, priority 2023, dated 2026).

Where a name gives a salt, the structure may show the parent alone.

T1 sequence (Q14191 whole entry): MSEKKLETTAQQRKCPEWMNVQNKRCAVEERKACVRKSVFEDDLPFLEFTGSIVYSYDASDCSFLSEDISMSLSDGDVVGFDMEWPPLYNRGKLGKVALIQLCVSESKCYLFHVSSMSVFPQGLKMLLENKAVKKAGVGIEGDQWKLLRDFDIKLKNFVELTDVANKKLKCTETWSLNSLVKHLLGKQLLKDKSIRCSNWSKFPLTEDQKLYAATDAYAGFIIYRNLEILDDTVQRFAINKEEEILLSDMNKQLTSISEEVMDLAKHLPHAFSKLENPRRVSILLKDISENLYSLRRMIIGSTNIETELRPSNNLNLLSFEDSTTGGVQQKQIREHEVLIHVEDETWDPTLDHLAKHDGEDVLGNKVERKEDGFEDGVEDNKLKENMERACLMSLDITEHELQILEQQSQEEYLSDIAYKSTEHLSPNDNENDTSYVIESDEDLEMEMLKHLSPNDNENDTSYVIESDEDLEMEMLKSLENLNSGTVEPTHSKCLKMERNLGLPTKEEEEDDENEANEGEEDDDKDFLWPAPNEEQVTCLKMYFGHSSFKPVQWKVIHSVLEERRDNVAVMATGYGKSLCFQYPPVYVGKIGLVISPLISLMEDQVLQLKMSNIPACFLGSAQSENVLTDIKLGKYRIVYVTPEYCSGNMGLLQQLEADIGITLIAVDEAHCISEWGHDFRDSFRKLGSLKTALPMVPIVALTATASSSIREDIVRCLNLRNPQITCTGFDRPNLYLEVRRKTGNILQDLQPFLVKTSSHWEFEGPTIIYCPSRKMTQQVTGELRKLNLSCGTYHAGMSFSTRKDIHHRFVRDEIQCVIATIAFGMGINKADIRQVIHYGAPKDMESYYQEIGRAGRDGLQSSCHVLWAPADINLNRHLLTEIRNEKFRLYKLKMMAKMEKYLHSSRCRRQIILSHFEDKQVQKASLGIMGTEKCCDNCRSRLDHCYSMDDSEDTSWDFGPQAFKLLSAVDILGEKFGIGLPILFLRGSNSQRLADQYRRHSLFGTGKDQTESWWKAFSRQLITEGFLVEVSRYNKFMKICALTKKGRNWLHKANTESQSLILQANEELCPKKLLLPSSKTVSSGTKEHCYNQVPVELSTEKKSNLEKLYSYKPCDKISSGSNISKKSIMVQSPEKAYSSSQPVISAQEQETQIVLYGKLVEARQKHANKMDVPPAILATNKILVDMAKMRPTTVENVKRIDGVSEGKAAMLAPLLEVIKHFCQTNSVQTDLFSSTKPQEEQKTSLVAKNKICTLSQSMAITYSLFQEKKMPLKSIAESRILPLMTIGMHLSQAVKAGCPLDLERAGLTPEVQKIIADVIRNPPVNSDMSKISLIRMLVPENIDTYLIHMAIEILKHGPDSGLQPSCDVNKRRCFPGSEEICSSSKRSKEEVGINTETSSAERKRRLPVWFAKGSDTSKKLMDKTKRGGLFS

Take `Cc1nc2cc(S(=O)(=O)N(C)c3ccc([C@H]4C[C@@H](O)C[C@@H](C(=O)Nc5ccc(C(F)(F)F)cc5F)[C@@H]4C(=O)O)cc3)ccc2n1C` (single isomer, unassigned) [Example 144]: the IC50 is 0.0501 µM.
On to `CO[C@@H]1C[C@H](c2ccc(N(C)S(=O)(=O)c3ccc4c(c3)nc(C)n4C)cc2)[C@@H](C(=O)O)[C@H](C(=O)Nc2ccc(C(F)(F)F)cc2F)C1` (single isomer, unassigned) [Example 146], for which the IC50 was 0.1 µM.
Take `Cc1nc2cc(S(=O)(=O)N(C)c3ccc([C@@H]4C[C@H](Oc5ccccc5)C[C@H](C(=O)Nc5ccc(C(F)(F)F)cc5F)[C@H]4C(=O)O)cc3)ccc2n1C` (single isomer, unassigned) [Example 153]: the IC50 was 3.16 µM.
As for `Cc1nc2cc(S(=O)(=O)N(C)c3ccc([C@H]4CCC[C@@H](C(=O)Nc5ccc(C(F)(F)F)cn5)[C@@H]4C(=O)O)cc3)ccc2n1C` (single isomer, unassigned) [Example 169], the IC50 was 7.94 µM.
`Cc1nc2cc(S(=O)(=O)N(C)c3ccc([C@H]4CCC[C@@H](C(=O)Nc5c(F)cc(C(C)C)cc5F)[C@@H]4C(=O)O)cc3)ccc2n1C` (single isomer, unassigned) [Example 170]: the IC50 is 0.0794 µM.
`Cc1nc2cc(S(=O)(=O)N(C)c3ccc([C@H]4CCC[C@@H](COc5ccc(C(F)(F)F)cc5)[C@@H]4C(=O)O)cc3)cc([C@@H]3CCCNC3)c2n1C` (single isomer, unassigned) [Example 209, hydrochloride]: the IC50 was 2 µM.
As for `Cc1nc2cc(S(=O)(=O)Nc3ccc([C@H]4CCC[C@@H](C(=O)Nc5ccc(C(F)(F)F)cc5F)[C@@H]4C(=O)O)cc3)ccc2n1C` (single isomer, unassigned) [Example 223], the IC50 is 0.158 µM.
In the case of `O=C(O)[C@@H]1[C@@H](c2ccc(C3CCS(=O)(=O)C3)cc2)CCC[C@H]1C(=O)Nc1ccc(C(F)(F)F)cc1F` (single isomer, unassigned) [Example 231, (1R,2S,6R)-2-(4-((R*)-1,1-dioxidotetrahydrothiophen-3-yl)phenyl)-6-((2-fluoro-4-(trifluoromethyl)phenyl)carbamoyl)cyclohexane-1-carboxylic acid], the IC50 is 0.316 µM.
Take `Cc1nc2cc(S(=O)(=O)N3CCOc4cc([C@@H]5CCC[C@H](C(=O)Nc6ccc(C(F)(F)F)cc6F)[C@H]5C(=O)O)ccc43)ccc2n1C` (single isomer, unassigned) [Example 242]: the IC50 was 0.794 µM.
Consider `CN[C@@H]1C[C@H](C(=O)Nc2ccc(C(F)(F)F)cc2F)[C@@H](C(=O)O)[C@H](c2ccc(N(C)S(=O)(=O)c3ccc4c(c3)nc(C)n4C)cc2)C1` (single isomer, unassigned) [Example 257], for which the IC50 is 0.251 µM.
Regarding `CC(=O)N[C@H]1C[C@H](COc2ccc(C(F)(F)F)cc2)[C@@H](C(=O)O)[C@H](c2ccc(N(C)S(=O)(=O)c3ccc4c(c3)nc(C)n4C)cc2)C1` (single isomer, unassigned) [Example 297], the IC50 was 2.51 µM.
For the molecule `Cc1nc2cc(S(=O)(=O)N(C)c3ccc([C@@H]4CNC[C@H](C(=O)Nc5ccc(C(F)(F)F)cc5F)[C@H]4C(=O)O)cc3)ccc2n1C` (single isomer, unassigned) [Example 307], the IC50 was 0.631 µM.
Regarding `N#Cc1cnnc(-c2ccc(C3CCCC(C(=O)Nc4ccc(C(F)(F)F)cc4F)[C@@H]3C(=O)O)cc2)c1` (stereo in doubt) [Example 39, (1R,2R,6S)-2-(4-(5-cyanopyridazin-3-yl)phenyl)-6-((2-fluoro-4-(trifluoromethyl)phenyl)carbamoyl)cyclohe xane-1-carboxylic acid], the IC50 is 2 µM.
As for `N#Cc1ccncc1-c1ccc(C2CCCC(C(=O)Nc3ccc(C(F)(F)F)cc3F)[C@@H]2C(=O)O)cc1` (stereo in doubt) [Example 49, (1R,2R,6S)-2-(4-(4-cyanopyridin-3-yl)phenyl)-6-((2-fluoro-4-(trifluoromethyl)phenyl)carbamoyl)cyclohe xane-1-carboxylic acid], the figure is 1 µM; as for `CCCO[C@@H]1C[C@H](C(=O)Nc2ccc(C(F)(F)F)cc2F)[C@@H](C(=O)O)[C@H](c2ccc(N(C)S(=O)(=O)c3ccc4c(c3)nc(C)n4C)cc2)C1` (stereo in doubt) [Example 150, rel-(1R,2R,4R,6S)-2-((2-fluoro-4-(trifluoromethyl)phenyl)carbamoyl)-4-propoxy-6-(4-((N,1,2-trimethyl-1H-benzo[d]imidazole)-5-sulfonamido)phenyl)cyclohexane-1-carboxylic acid], 3.98 µM.
Take `Cc1nc2cc(S(=O)(=O)N(C)c3ccc([C@@H]4C[C@H](OCC5CCC5)C[C@H](C(=O)Nc5ccc(C(F)(F)F)cc5F)[C@H]4C(=O)O)cc3)ccc2n1C` (stereo in doubt) [Example 155, rel-(1R,2R,4R,6S)-4-(cyclobutylmethoxy)-2-((2-fluoro-4-(trifluoromethyl)phenyl)carbamoyl)-6-(4-((N,1,2-trimethyl-1H-benzo[d]imidazole)-5-sulfonamido)phenyl)cyclohexane-1-carboxylic acid]: the IC50 is 0.794 µM.
Regarding `Cc1nc2cc(S(=O)(=O)N(C)c3ccc([C@@H]4C[C@H](N(C)C)C[C@H](C(=O)Nc5ccc(C(F)(F)F)cc5F)[C@H]4C(=O)O)cc3)ccc2n1C` (stereo in doubt) [Example 252, rel-(1R,2R,4R,6S)-4-(dimethylamino)-2-((2-fluoro-4-(trifluoromethyl)phenyl)carbamoyl)-6-(4-((N,1,2-trimethyl-1H-benzo[d]imidazole)-5-sulfonamido)phenyl)cyclohexane-1-carboxylic acid], the IC50 was 0.0631 µM.
Regarding `CC(=O)N(C)[C@H]1C[C@H](C(=O)Nc2ccc(C(F)(F)F)cc2F)[C@@H](C(=O)O)[C@H](c2ccc(N(C)S(=O)(=O)c3ccc4c(c3)nc(C)n4C)cc2)C1` (stereo in doubt) [Example 293, rel-(1R,2R,4S,6S)-2-((2-fluoro-4-(trifluoromethyl)phenyl)carbamoyl)-4-(N-methylacetamido)-6-(4-((N,1,2-trimethyl-1H-benzo[d]imidazole)-5-sulfonamido)phenyl)cyclohexane-1-carboxylic acid], the IC50 was 0.0316 µM.
As to `Cc1nc2cc(S(=O)(=O)N(C)c3ccc([C@@H]4C[C@@H](N)C[C@H](C(=O)Nc5ccc(C(F)(F)F)cc5F)[C@H]4C(=O)O)cc3)ccc2n1C` (stereo in doubt) [Example 299, rel-(1R,2R,4S,6S)-4-amino-2-((2-fluoro-4-(trifluoromethyl)phenyl)carbamoyl)-6-(4-((N,1,2-trimethyl-1H-benzo[d]imidazole)-5-sulfonamido)phenyl)cyclohexane-1-carboxylic acid], the IC50 is 0.0631 µM.
For `Cc1nc2cc(S(=O)(=O)N(C)c3ccc([C@@H]4C[C@H](N)C[C@H](C(=O)Nc5ccc(C(F)(F)F)cc5F)[C@H]4C(=O)O)cc3)ccc2n1C` (stereo in doubt) [Example 302, rel-(1R,2R,4R,6S)-4-amino-2-((2-fluoro-4-(trifluoromethyl)phenyl)carbamoyl)-6-(4-((N,1,2-trimethyl-1H-benzo[d]imidazole)-5-sulfonamido)phenyl)cyclohexane-1-carboxylic acid], the IC50 is 0.126 µM.
`CC(=O)N1C[C@H](C(=O)Nc2ccc(C(F)(F)F)cc2F)[C@@H](C(=O)O)[C@H](c2ccc(N(C)S(=O)(=O)c3ccc4c(c3)nc(C)n4C)cc2)C1` (stereo in doubt) [Example 309, rel-(3R,4S,5R)-1-acetyl-3-((2-fluoro-4-(trifluoromethyl)phenyl)carbamoyl)-5-(4-((N,1,2-trimethyl-1H-benzo[d]imidazole)-5-sulfonamido)phenyl)piperidine-4-carboxylic acid]: the IC50 was 0.2 µM.
In the case of `Cc1nc2cc(S(=O)(=O)N(C)c3ccc([C@@H]4C[C@H](OC5CCC5)C[C@H](C(=O)Nc5ccc(C(F)(F)F)cc5F)[C@H]4C(=O)O)cc3)ccc2n1C` (stereo in doubt) [Example 326, rel-(1R,2R,4R,6S)-4-cyclobutoxy-2-((2-fluoro-4-(trifluoromethyl)phenyl)carbamoyl)-6-(4-((N,1,2-trimethyl-1H-benzo[d]imidazole)-5-sulfonamido)phenyl)cyclohexane-1-carboxylic acid], the IC50 is 0.631 µM.
`Cc1nc2cc(S(=O)(=O)N(C)c3ccc([C@@H]4C[C@@H](NCC(F)(F)F)C[C@H](C(=O)Nc5ccc(C(F)(F)F)cc5F)[C@H]4C(=O)O)cc3)ccc2n1C` (stereo in doubt) [Example 335, rel-(1R,2R,4S,6S)-2-((2-fluoro-4-(trifluoromethyl)phenyl)carbamoyl)-4-((2,2,2-trifluoroethyl)amino)-6-(4-((N,1,2-trimethyl-1H-benzo[d]imidazole)-5-sulfonamido)phenyl)cyclohexane-1-carboxylic acid]: the IC50 was 2.51 µM.
